According to patent US6310056A, “Carbapenem derivatives” (Meiji Seika Kaisha, Ltd., priority 1997, dated 2001):
Converted amounts (≈) assume the structure as drawn. Where a name gives a salt, the structure may show the parent alone.

Experiments:
[1] = Stability against DHP-I, porcine; format: in vitro ADME; conditions: pig, renal dehydropeptidase i, pH 7, 100 μg (titer)/ml, 37° C., HPLC, read-out: residual amount after 3 hours
Experimental: (§1) The stabilities of the compounds according to the present invention against porcine and mouse renal dehydropeptidases were measured by the following method.
(§2) Kidney acetone powder, Porcine Type II(Sigma; Lot. 33H7225; 1.5 g) was suspended in a 50 mM Tris.HCl buffer (pH 7.0) containing 20% butanol, and the mixture was stirred at 5° C. for 48 hours. Dialysis (Cellulose tube 30/32; Viskase Sales Corp) was conducted with a 50 mM Tris.HCl buffer (pH 7.0) in order to remove butanol to a level of no smell of butanol. The dialysate was centrifuged at 10000×g (KUBOTA 6800) for 20 minutes to give a supernatant as a partly purified DHP-I, which was divided into portions and stored at -80° C. Also, a partly purified DHP-I was prepared from 1.5 g of Mouse (Lot. 23F8105), and stored in the same manner as above.
(§3) The compounds according to the present invention as a basic pharmaceutical was diluted with sterile purified water to prepare a solution having a titer of 2000 μg/ml. The solution of the compound according to the present invention having a titer of 2000 μg/ml was added to the partly purified DHP-I's of the above described animals so as to have a final concentration of 100 μg (titer)/ml. As a blank, 50 mM Tris.HCl buffer (pH 7.0) was used in place of the partly purified DHP-I's of the animals. After reaction at 37° C. for 3 hours, a portion of the reaction mixture was taken out, diluted with the same amount of methanol to stop the reaction by cooling in ice. The reaction mixture was filtered through SUNPLEP LCR13-LH, MILLIPORE), and subjected to HPLC (column: CAPCELL PACK C18 SG120, SHISEIDO; UV detector; mobile phase: acetonitrile--10 mM aqueous acetic acid solution) to measure the residual amount (%) of […] according to the following equation. [formula]

[2] = Stability against DHP-I, mouse; format: in vitro ADME; conditions: renal dehydropeptidase i, pH 7, 100 μg (titer)/ml, 37° C., HPLC, read-out: residual amount after 3 hours
Experimental: as §1, §2, §3

S. epidermidis ATCC14990 = assay: Anti-microbial activities (MIC); format: cell-based; conditions: Staphylococcus epidermidis, Sensitivity Disk agar-N+5% Horse blood, 10^6 CFU/ml, read-out: minimum inhibiting concentration (MIC)
Experimental: (§4) The minimum inhibiting concentrations (MIC, […]) of the compounds according to the present invention to various pathogenic bacteria was measured in accordance with the method described in CHEMOTHERAPY, vol. 16, No. 1, 99, 1968. The culture medium for measurement was Sensitivity Disk agar-N+5% Horse blood, and the amount of inoculants was 10^6 CFU/ml.

E. faecalis W-73 = assay: Anti-microbial activities (MIC); format: cell-based; conditions: Enterococcus faecalis, W73, Sensitivity Disk agar-N+5% Horse blood, 10^6 CFU/ml, read-out: minimum inhibiting concentration (MIC)
Experimental: as §4

S. aureus 209P JC-1 = assay: Anti-microbial activities (MIC); format: cell-based; conditions: Staphylococcus aureus, Sensitivity Disk agar-N+5% Horse blood, 10^6 CFU/ml, read-out: minimum inhibiting concentration (MIC)
Experimental: as §4

P. vulgaris GN7919 = assay: Anti-microbial activities (MIC); format: cell-based; conditions: Proteus vulgaris, Sensitivity Disk agar-N+5% Horse blood, 10^6 CFU/ml, read-out: minimum inhibiting concentration (MIC)
Experimental: as §4

H. influenzae PRC44 = assay: Anti-microbial activities (MIC); format: cell-based; conditions: Haemophilus influenzae, Sensitivity Disk agar-N+5% Horse blood, 10^6 CFU/ml, read-out: minimum inhibiting concentration (MIC)
Experimental: as §4

K. pneumoniae PCI602 = assay: Anti-microbial activities (MIC); format: cell-based; conditions: Klebsiella pneumoniae, Sensitivity Disk agar-N+5% Horse blood, 10^6 CFU/ml, read-out: minimum inhibiting concentration (MIC)
Experimental: as §4

B. catarrhalis W-0506 = assay: Anti-microbial activities (MIC); format: cell-based; conditions: Moraxella catarrhalis, W0506, Sensitivity Disk agar-N+5% Horse blood, 10^6 CFU/ml, read-out: minimum inhibiting concentration (MIC)
Experimental: as §4

E. hirae ATCC8043 = assay: Anti-microbial activities (MIC); format: cell-based; conditions: Enterococcus hirae, Sensitivity Disk agar-N+5% Horse blood, 10^6 CFU/ml, read-out: minimum inhibiting concentration (MIC)
Experimental: as §4

C. freundii GN346 = assay: Anti-microbial activities (MIC); format: cell-based; conditions: Citrobacter freundii, Sensitivity Disk agar-N+5% Horse blood, 10^6 CFU/ml, read-out: minimum inhibiting concentration (MIC)
Experimental: as §4

H. influenzae PRC2 = assay: Anti-microbial activities (MIC); format: cell-based; conditions: Haemophilus influenzae, Sensitivity Disk agar-N+5% Horse blood, 10^6 CFU/ml, read-out: minimum inhibiting concentration (MIC)
Experimental: as §4

E. coli NIHJ JC-2 = assay: Anti-microbial activities (MIC); format: cell-based; conditions: Escherichia coli, NIHJJC2, Sensitivity Disk agar-N+5% Horse blood, 10^6 CFU/ml, read-out: minimum inhibiting concentration (MIC)
Experimental: as §4

[3] = test system: S. pneumoniae PRC9 (penicillin-hyper resistant strain, PRSP); assay: Anti-microbial activities (MIC); format: cell-based; conditions: Streptococcus pneumoniae, Sensitivity Disk agar-N+5% Horse blood, 10^6 CFU/ml, read-out: minimum inhibiting concentration (MIC)
Experimental: as §4
**: penicillin-hyper resistant strain (PRSP);

[4] = test system: S. aureus M126 (methicillin-hyper resistant strain, MRSA); assay: Anti-microbial activities (MIC); format: cell-based; conditions: Staphylococcus aureus, Sensitivity Disk agar-N+5% Horse blood, 10^6 CFU/ml, read-out: minimum inhibiting concentration (MIC)
Experimental: as §4
*: methicillin-hyper resistant strain (MRSA);

Acute toxicity test = format: in vivo, mice (ICR, male); conditions: intravenous, 2000 mg/kg, mice, n=3
Experimental: The compound of Example 1 was administered intravenously to mice (ICR, male, n =3) in an amount of 2000 mg/kg.

SMILES	remaining at 3 h [1] [%]	remaining at 3 h [2] [%]	MIC (S. epidermidis ATCC14990) [µg/mL]	MIC (E. faecalis W-73) [µg/mL]	MIC (S. aureus 209P JC-1) [µg/mL]	MIC (P. vulgaris GN7919) [µg/mL]	MIC (H. influenzae PRC44) [µg/mL]	MIC (K. pneumoniae PCI602) [µg/mL]	MIC (B. catarrhalis W-0506) [µg/mL]	MIC (E. hirae ATCC8043) [µg/mL]	MIC (C. freundii GN346) [µg/mL]	MIC (H. influenzae PRC2) [µg/mL]	MIC (E. coli NIHJ JC-2) [µg/mL]	MIC [3] [µg/mL]	MIC [4] [µg/mL]	survival (acute toxicity) (Acute toxicity test)
C[C@@H](O)[C@H]1C(=O)N2C(C(=O)O)=C(S[C@@H]3CN[C@H](C(=O)N(C)C)C3)[C@H](C)[C@H]12 [C, meropenem, reference compound]	72	18	–	–	–	–	–	–	–	–	–	–	–	–	–	–
C[C@@H](O)[C@H]1C(=O)N2C(C(=O)O)=C(SCCN=CN)C[C@H]12 [Compound A, imipenem, reference compound]	0.6	24	< 0.025	0.78 (≈ 2.61 µM)	< 0.025	0.1 (≈ 0.334 µM)	12.5 (≈ 41.8 µM)	0.2 (≈ 0.668 µM)	< 0.025	0.78 (≈ 2.61 µM)	0.2 (≈ 0.668 µM)	0.78 (≈ 2.61 µM)	0.1 (≈ 0.334 µM)	0.2 (≈ 0.668 µM)	25 (≈ 83.5 µM)	–
C[C@@H](O)[C@H]1C(=O)N2C(C(=O)O)=C(S[C@@H]3CN[C@H](Cc4cn5c[n+](C)cc5s4)C3)[C@H](C)[C@H]12 [Compound B, (1R,5S,6S)-6-((1R)-1-hydroxyethyl)-1-methyl-2-[(3S,5S)-5-(6-methylimidazo[5,1-b]thiazolium-2-yl)methylpyrrolidin-3-yl]thiocarbapen-2-em-3-carboxylic acid iodide, reference compound]	–	–	0.05	3.13	< 0.025	0.1	0.78	0.1	< 0.025	1.56	0.1	0.1	0.05	0.39	6.25	–
C[C@@H](O)[C@H]1C(=O)N2C(C(=O)O)=C(c3cn4cncc4s3)[C@H](C)[C@H]12 [Example 1, (1S,5R,6S)-6-((1R)-1-hydroxyethyl)-2-(imidazo[5,1-b]thiazol-2-yl)-1-methyl-1-carbapen-2-em-3-carboxylic Acid]	87	< 2.9	< 0.025	0.2 (≈ 0.6 µM)	< 0.025	0.05 (≈ 0.15 µM)	0.39 (≈ 1.17 µM)	0.1 (≈ 0.3 µM)	< 0.025	0.39 (≈ 1.17 µM)	1.56 (≈ 4.68 µM)	< 0.025	0.1 (≈ 0.3 µM)	0.1 (≈ 0.3 µM)	3.13 (≈ 9.39 µM)	all of the animals were survived
C[C@@H](O)[C@H]1C(=O)N2C(C(=O)[O-])=C(c3cn4c[n+](C)cc4s3)[C@H](C)[C@H]12 [Example 4, (1S,5R,6S)-6-((1R)-1-hydroxyethyl)-1-methyl-2-(6-methylimidazo[5,1-b]thiazolium-2-yl)-1-carbapen-2-em-3-carboxylate (inner salt)]	100	94	< 0.025	0.1	< 0.025	0.1	0.39	0.05	< 0.025	0.78	0.1	0.05	< 0.025	0.05	3.13	–
C[C@@H](O)[C@H]1C(=O)N2C(C(=O)O)=C(c3cn4cncc4s3)C[C@H]12 [Example 8, (5R,6S)-6-((1R)-1-hydroxyethyl)-2-(imidazo[5,1-b]thiazol-2-yl)-1-carbapen-2-em-3-carboxylic Acid]	60	< 0.2	0.05 (≈ 0.157 µM)	0.39 (≈ 1.22 µM)	< 0.025	0.1 (≈ 0.313 µM)	0.78 (≈ 2.44 µM)	0.05 (≈ 0.157 µM)	< 0.025	0.78 (≈ 2.44 µM)	0.2 (≈ 0.626 µM)	0.05 (≈ 0.157 µM)	0.1 (≈ 0.313 µM)	0.2 (≈ 0.626 µM)	6.25 (≈ 19.6 µM)	–
